Measured values from US9242981B2, “Fused pyrazole derivatives as novel ERK inhibitors” (Merck Sharp & Dohme Corp., priority 2010, dated 2016).

Target: Mouse ERK2 protein (Mus musculus (Mouse), UniProt P63085)
Test: Coupled MEK1/ERK2 IMAP assay or Active ERK2 IMAP assay
Format: biochemical
Conditions: Table 1, class symbols, 30 μM ATP
Experimental: 14 μl of kinase buffer (10 mM Tris.HCl pH 7.2, 10 mM MgCl2, 0.01% Tween-20, 1 mM DTT) containing 0.4 ng unphosphorylated Mouse ERK2 protein is added to each well of a black 384-well assay plate. […] DMSO concentration during initial incubation is 6.7%. […] DMSO concentration during ERK activation was 4%. After one hour, reactions are terminated by addition of 60 μl IMAP detections beads in binding buffer (Molecular Devices). Binding is allowed to equilibrate for 30 minutes before reading the plate on an LJL Analyst Fluorescence Polarization plate reader.
Activated ERK2 activity was also determined in the IMAP assay format using the procedure outlined above. […] Reactions proceeded for 30 minutes before termination by addition of […] IMAP detection beads in binding buffer. Plates were read as above after 30 minute binding equilibration.

Mouse ERK2 protein, sequence (P63085 whole entry): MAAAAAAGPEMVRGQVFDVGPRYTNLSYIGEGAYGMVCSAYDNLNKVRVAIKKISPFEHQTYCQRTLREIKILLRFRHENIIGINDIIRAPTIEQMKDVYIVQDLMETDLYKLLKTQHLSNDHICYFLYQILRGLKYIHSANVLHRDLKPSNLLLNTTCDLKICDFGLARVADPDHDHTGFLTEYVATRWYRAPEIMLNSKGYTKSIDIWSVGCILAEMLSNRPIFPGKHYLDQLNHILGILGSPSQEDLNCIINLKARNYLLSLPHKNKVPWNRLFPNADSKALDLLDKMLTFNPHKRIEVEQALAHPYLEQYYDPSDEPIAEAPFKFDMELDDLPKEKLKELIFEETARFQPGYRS

Compound | IC50
O=C(NC1CC2CC1N(Cc1c(F)cccc1F)C2)N1CCc2[nH]nc(-c3ccncc3)c2C1 (stereo not drawn) [Compound 107, N-[2-[(2,6-difluorophenyl)-methyl]-2-azabicyclo[2.2.1]-hept-6-yl]-1,4,6,7-tetrahydro-3-(4-pyridinyl)-5H-pyrazolo[4,3-c]pyridine-5-carboxamide] | 0.101 to 1 µM
O=C(NC1CN(Cc2c(F)cccc2F)CCC1F)N1CCc2[nH]nc(-c3ccc4nccn4c3)c2C1 (mixture of isomers) [Compound 156, N-[cis/trans-1-[(2,6-difluorophenyl)methyl]-4-fluoro-3-piperidinyl]-1,4,6,7-tetrahydro-3-imidazo[1,2-a]pyridin-6-yl-5H-pyrazolo[4,3-c]pyridine-5-carboxamide] | 0.101 to 1 µM
Cc1cc(-c2n[nH]c3c2CN(C(=O)N[C@@H]2CCN(Cc4c(F)cccc4F)C2)CC3)ccn1 [Compound 115, N-[1-[(2,6-difluorophenyl)-methyl]-3(R)-pyrrolidinyl]-1,4,6,7-tetrahydro-3-(2-methyl-4-pyridinyl)-5H-pyrazolo[4,3-c]pyridine-5-carboxamide] | 0.101 to 1 µM
Cc1cc(-c2n[nH]c3c2CN(C(=O)N[C@H]2CC[C@H]4CC[C@@H]2N4Cc2c(F)cccc2F)CC3)ccn1 [Compound 164, N-[endo-8-[(2,6-difluorophenyl)methyl]-8-azabicyclo[3.2.1]oct-2-yl]-1,4,6,7-tetrahydro-3-(2-methyl-4-pyridinyl)-5H-pyrazolo[4,3-c]pyridine-5-carboxamide] | 0.101 to 1 µM
COc1ccccc1CC(=O)N1CCc2[nH]nc(-c3ccncc3)c2C1 [Compound 10, 4,5,6,7-tetrahydro-5-[(2-methoxyphenyl)acetyl]-3-(4-pyridinyl)-1H-pyrazolo[4,3-c]pyridine] | 1 to 100 µM
Cc1cc(-c2n[nH]c3c2CN(C(=O)NC2CC(C)CN(Cc4c(F)cccc4F)C2)CC3)ccn1 (stereo not drawn) [Compound 89, N-[1-[(2,6-difluorophenyl)-methyl]-5-methyl-3-piperidinyl]-1,4,6,7-tetrahydro-3-(2-methyl-4-pyridinyl)-5H-pyrazolo[4,3-c]pyridine-5-carboxamide] | 0.021 to 0.1 µM
O=C(N[C@@H]1CCCN(Cc2c(F)cccc2F)C1)N1CCc2[nH]nc(-c3ccc4c(c3)CCO4)c2C1 [Compound 179, N[1-[(2,6-difluorophenyl)methyl]-3(R)-piperidinyl]-3-(2,3-dihydro-5-benzofuranyl)-1,4,6,7-tetrahydro-5H-pyrazolo[4,3-c]pyridine-5-carboxamide] | 0.021 to 0.1 µM
Nc1nc(CC(=O)N2CCc3[nH]nc(-c4ccncc4)c3C2)cs1 [Compound 5, 5-[(2-amino-4-thiazolyl)-acetyl]-4,5,6,7-tetrahydro-3-(4-pyridinyl)-1H-pyrazolo[4,3-c]pyridine] | 1 to 100 µM
O=C(C(CO)c1ccccc1)N1CCc2[nH]nc(-c3ccncc3)c2C1 (stereo not drawn) [Compound 38, 1,4,6,7-tetrahydro-gamma-oxo-beta-phenyl-3-(4-pyridinyl)-5H-pyrazolo[4,3-c]pyridine-5-propanol] | 1 to 100 µM
Cc1cc(-c2n[nH]c3c2CN(C(=O)N[C@@H]2CC[C@H]4CC[C@@H]2N4Cc2c(F)cccc2F)CC3)ccn1 [Compound 178, N-[exo-8-[(2,6-difluorophenyl)methyl]-8-azabicyclo[3.2.1]oct-2-yl]-1,4,6,7-tetrahydro-3-(2-methyl-4-pyridinyl)-5H-pyrazolo[4,3-c]pyridine-5-carboxamide] | < 0.02 µM
CC(C)C(Cn1ccnc1)NC(=O)C1(C)CCc2[nH]nc(-c3ccncc3)c2C1 (stereo not drawn) [Compound 16, 4,5,6,7-tetrahydro-N-[1-(1H-imidazoL-1-ylmethyl)-2-methylpropyl]-5-methyl-3-(4-pyridinyl)-1H-indazole-5-carboxamide] | 1 to 100 µM
Cc1nc2cc(-c3n[nH]c4c3CN(C(=O)N[C@@H]3CCCN(Cc5c(C)cccc5C)C3)CC4)ccc2s1 [Compound 184, N-[1-[(2,6-dimethylphenyl)methyl]-3(R)-piperidinyl]-1,4,6,7-tetrahydro-3-(2-methyl-5-benzothiazolyl)-5H-pyrazolo[4,3-c]pyridine-5-carboxamide] | 0.021 to 0.1 µM
Cc1cc(-c2n[nH]c3c2CN(C(=O)NC2(C)CCCN(Cc4c(F)cccc4F)C2)CC3)ccn1 (stereo not drawn) [Compound 87, N-[1-[(2,6-difluorophenyl)-methyl]-3-methyl-3-piperidinyl]-1,4,6,7-tetrahydro-3-(2-methyl-4-pyridinyl)-5H-pyrazolo[4,3-c]pyridine-5-carboxamide] | 0.101 to 1 µM
O=C(Cc1cccc(Br)c1)N1CCc2[nH]nc(-c3ccncc3)c2C1 [Compound 9, 5-[(3-bromophenyl)acetyl]-4,5,6,7-tetrahydro-3-(4-pyridinyl)-1H-pyrazolo[4,3-c]pyridine] | 0.101 to 1 µM
O=C(NC1CC(O)CN(Cc2ccccc2Cl)C1)N1CCc2[nH]nc(-c3ccncc3)c2C1 (stereo not drawn) [Compound 114, N-[1-[(2-chlorophenyl)-methyl]-5-hydroxy-3-piperidinyl]-1,4,6,7-tetrahydro-3-(4-pyridinyl)-5H-pyrazolo[4,3-c]pyridine-5-carboxamide] | < 0.02 µM
O=C(N[C@@H]1CCCNC1)N1CCc2[nH]nc(-c3ccncc3)c2C1 (single isomer, unassigned) [Compound 171] | 0.101 to 1 µM
Cc1cc(-c2n[nH]c3c2CN(C(=O)NC2CC(CO)CN(Cc4c(F)cccc4F)C2)CC3)ccn1 (stereo not drawn) [Compound 86, N-[1-[(2,6-difluorophenyl)-methyl]-5-(hydroxymethyl)-3-piperidinyl]-1,4,6,7-tetrahydro-3-(2-methyl-4-pyridinyl)-5H-pyrazolo[4,3-c]pyridine-5-carboxamide] | 0.021 to 0.1 µM
O=C(N[C@@H]1CCCN(Cc2ccccc2N2CCOCC2)C1)N1CCc2[nH]nc(-c3ccncc3)c2C1 [Compound 74, 1,4,6,7-tetrahydro-N-[1-[[2-(4-morpholinyl)phenyl]-methyl]-3(R)-piperidinyl]-3-(4-pyridinyl)-5H-pyrazolo[4,3-c]pyridine-5-carboxamide] | 0.101 to 1 µM
COc1ccc(-c2n[nH]c3c2CN(C(=O)N[C@@H]2CCCN(Cc4c(F)cccc4F)C2)CC3)cc1F [Compound 131, N-[1-[(2,6-difluorophenyl)-methyl]-3(R)-piperidinyl]-3-(3-fluoro-4-methoxyphenyl)-1,4,6,7-tetrahydro-5H-pyrazolo[4,3-c]pyridine-5-carboxamide] | 0.021 to 0.1 µM
O=C(Cc1ccccc1Cl)N1CCc2[nH]nc(-c3ccncc3)c2C1 [Compound 8, 5-[(2-chlorophenyl)acetyl]-4,5,6,7-tetrahydro-3-(4-pyridinyl)-1H-pyrazolo[4,3-c]pyridine] | 0.101 to 1 µM
CCC1(NC(=O)N2CCc3[nH]nc(-c4ccnc(C)c4)c3C2)CCCN(Cc2c(F)cccc2F)C1 (stereo not drawn) [Compound 92, N-[1-[(2,6-difluorophenyl)-methyl]-3-ethyl-3-piperidinyl]-1,4,6,7-tetrahydro-3-(2-methyl-4-pyridinyl)-5H-pyrazolo[4,3-c]pyridine-5-carboxamide] | 0.101 to 1 µM
CC1(C(=O)Nc2ccccc2OCCN2CCCCC2)CCc2[nH]nc(-c3ccncc3)c2C1 (stereo not drawn) [Compound 21, 4,5,6,7-tetrahydro-5-methyl-N-[2-[2-(1-piperidinyl)ethoxy]-phenyl]-3-(4-pyridinyl)-1H-indazole-5-carboxamide] | 1 to 100 µM
O=C(Cc1c(F)cccc1Cl)N1CCc2[nH]nc(-c3ccncc3)c2C1 [Compound 27, 5-[(2-chloro-6-fluorophenyl)acetyl]-4,5,6,7-tetrahydro-3-(4-pyridinyl)-1H-pyrazolo[4,3-c]pyridine] | 0.101 to 1 µM
O=C(C1CCCc2ccccc21)N1CCc2[nH]nc(-c3ccncc3)c2C1 (stereo not drawn) [Compound 39, 4,5,6,7-tetrahydro-3-(4-pyridinyl)-5-[(1,2,3,4-tetrahydro-1-naphthalenyl)carbonyl]-1H-pyrazolo[4,3-c]pyridine] | 1 to 100 µM
O=C(N[C@@H]1CCCN(Cc2nccs2)C1)N1CCc2[nH]nc(-c3ccncc3)c2C1 [Compound 55, 1,4,6,7-tetrahydro-3-(4-pyridinyl)-N-[1-(2-thiazolylmethyl)-3(R)-piperidinyl]-5H-pyrazolo[4,3-c]pyridine-5-carboxamide] | 0.021 to 0.1 µM
Cc1nc2ccc(-c3n[nH]c4c3CN(C(=O)N[C@@H]3CCCN(Cc5c(F)cccc5F)C3)CC4)cc2o1 [Compound 187, N-[1-[(2,6-difluorophenyl)methyl]-3(R)-piperidinyl]-1,4,6,7-tetrahydro-3-(2-methyl-6-benzoxazolyl)-5H-pyrazolo[4,3-c]pyridine-5-carboxamide] | 0.101 to 1 µM
O=C(N[C@@H]1CCCN(Cc2ccccc2C(F)(F)F)C1)N1CCc2[nH]nc(-c3ccncc3)c2C1 [Compound 67, 1,4,6,7-tetrahydro-3-(4-pyridinyl)-N-[1-[[2-(trifluoromethyl)phenyl]meth-yl]-3(R)-piperidinyl]-5H-pyrazolo[4,3-c]pyridine-5-carboxamide] | 0.021 to 0.1 µM
COc1cccc(F)c1CN1CC2CC(NC(=O)N3CCc4[nH]nc(-c5ccncc5)c4C3)C1C2 (stereo not drawn) [Compound 108, N-[2-[(2-fluoro-6-methoxyphenyl)methyl]-2-azabicyclo[2.2.1]hept-6-yl]-1,4,6,7-tetrahydro-3-(4-pyridinyl)-5H-pyrazolo[4,3-c]pyridine-5-carboxamide] | 0.101 to 1 µM
O=C(NC1CC[C@H]2CC[C@@H]1N2Cc1c(F)cccc1F)N1CCc2[nH]nc(-c3ccc4nccn4c3)c2C1 (stereo in doubt) [Compound 182, N-[8-[(2,6-difluorophenyl)methyl]-8-azabicyclo[3.2.1]oct-2-yl]-1,4,6,7-tetrahydro-3-imidazo[1,2-a]pyridin-6-yl-5H-pyrazolo[4,3-c]pyridine-5-carboxamide] | 0.101 to 1 µM
O=C(Cc1cccs1)N1CCc2[nH]nc(-c3ccncc3)c2C1 [Compound 7, 4,5,6,7-tetrahydro-3-(4-pyridinyl)-5-(2-thienylacetyl)-1H-pyrazolo[4,3-c]pyridine] | 1 to 100 µM
